Values joined by “and” are separate entries in the source; they are usually repeats but may differ in a detail not shown here. Identical values can stand only once. Toxic doses and inconclusive results are not listed. Rule for the calls: active = survival T/C of 150% or more; inactive = T/C below 125% in these data.
Tested on: CD2F1 mice, L1210 leukemia ip, survival T/C
Test: NCI In Vivo Anticancer Drug Screen. Data for tumor model L1210 Leukemia (intraperitoneal) in CD2F1 (CDF1) mice
Details: higher = longer survival
Outline: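 Each value reflects a quotient of treated over vehicle control outcomes in mice with a transplanted tumor.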

[1] = endpoint: mean survival time, dose: 100.0 mg/kg/injection, schedule: Q01DX009 (ip), vehicle: saline with Tween-80
[2] = endpoint: mean survival time, dose: 200.0 mg/kg/injection, schedule: Q01DX009 (ip), vehicle: saline with Tween-80
[3] = endpoint: mean survival time, dose: 400.0 mg/kg/injection, schedule: Q01DX009 (ip), vehicle: saline with Tween-80
[4] = endpoint: mean survival time, dose: 50.0 mg/kg/injection, schedule: Q01DX009 (ip), vehicle: saline with Tween-80
[5] = endpoint: mean survival time, dose: 100.0 mg/kg/injection, schedule: Q04DX003 (ip), vehicle: saline with Tween-80
[6] = endpoint: mean survival time, dose: 200.0 mg/kg/injection, schedule: Q04DX003 (ip), vehicle: saline with Tween-80
[7] = endpoint: mean survival time, dose: 400.0 mg/kg/injection, schedule: Q04DX003 (ip), vehicle: saline with Tween-80
[8] = endpoint: mean survival time, dose: 100.0 mg/kg/injection, schedule: Q01DX001 (ip), vehicle: saline with Tween-80
[9] = endpoint: mean survival time, dose: 200.0 mg/kg/injection, schedule: Q01DX001 (ip), vehicle: saline with Tween-80
[10] = endpoint: mean survival time, dose: 400.0 mg/kg/injection, schedule: Q01DX001 (ip), vehicle: saline with Tween-80
[11] = endpoint: mean survival time, dose: 50.0 mg/kg/injection, schedule: Q04DX003 (ip), vehicle: saline with Tween-80

Measured: T/C

CC1(CCOC2CCCCO2)NC(=O)NC1=O (stereo unspecified)
inactive: endpoint: mean survival time, dose: 100.0 mg/kg/injection, schedule: Q01DX001 (ip), vehicle: saline sonified 102 % of control | [1] 112 % of control | endpoint: mean survival time, dose: 200.0 mg/kg/injection, schedule: Q01DX001 (ip), vehicle: saline sonified 100 % of control | [2] 103 % of control | endpoint: mean survival time, dose: 400.0 mg/kg/injection, schedule: Q01DX001 (ip), vehicle: saline sonified 100 % of control | [3] 103 % of control

OCC1OC(n2ncc3c(N/N=C/c4ccc(N(CCCl)CCCl)cc4)ncnc32)C(O)C1O (stereo unspecified)
inactive: endpoint: mean survival time, dose: 25.0 mg/kg/injection, schedule: Q01DX009 (ip), vehicle: saline with Tween-80 102 % of control | [4] 93 % of control | [1] 102 % of control | [2] 89 % of control | [3] 93 % of control

O=C(O)CSCC(=O)c1ccccc1
inactive: [1] 98 % of control | [5] 94 % of control | [2] 100 % of control | [6] 98 % of control | [3] 98 % of control | [7] 102 % of control

O=C(O)c1c(F)cccc1F
inactive: endpoint: mean survival time, dose: 75.0 mg/kg/injection, schedule: Q01DX001 (ip), vehicle: other 103 % of control | endpoint: mean survival time, dose: 150.0 mg/kg/injection, schedule: Q01DX001 (ip), vehicle: other 100 % of control | endpoint: mean survival time, dose: 300.0 mg/kg/injection, schedule: Q01DX001 (ip), vehicle: other 100 % of control

CCCCCCSC(=O)Nc1ccc(C)c(NC(=O)SCCCCCC)c1
inactive: [4] 95 % of control | [1] 93 % of control | [2] 93 % of control

Cc1cccc(Oc2ccc(C(F)(F)F)cc2[N+](=O)[O-])c1
inactive: [8] 98 % of control | [9] 90 % of control | [10] 91 % of control

CN(C)N=C1CCCC1
inactive: [11] 101 % of control | endpoint: mean survival time, dose: 75.0 mg/kg/injection, schedule: Q01DX001 (ip), vehicle: saline 98 % of control | [5] 95 % of control | endpoint: mean survival time, dose: 150.0 mg/kg/injection, schedule: Q01DX001 (ip), vehicle: saline 100 % of control | [6] 100 % of control

c1ccc(CCN2CCC(CCc3c[nH]c4ccccc34)CC2)cc1
inactive: [4] 107 % of control | [11] 110 % of control | [5] 104 % of control | [6] 92 % of control

CCOC(=O)c1cc([N+](=O)[O-])cc([N+](=O)[O-])c1Sc1ncnc2nc[nH]c12
inactive: endpoint: mean survival time, dose: 0.63 mg/kg/injection, schedule: Q01DX005 (ip), vehicle: other 98 % of control | endpoint: mean survival time, dose: 1.25 mg/kg/injection, schedule: Q01DX005 (ip), vehicle: other 102 % of control | endpoint: mean survival time, dose: 2.5 mg/kg/injection, schedule: Q01DX005 (ip), vehicle: other 110 % of control | endpoint: mean survival time, dose: 5.0 mg/kg/injection, schedule: Q01DX005 (ip), vehicle: other 100 % of control | endpoint: mean survival time, dose: 6.25 mg/kg/injection, schedule: Q01DX005 (ip), vehicle: other 120 % of control | endpoint: mean survival time, dose: 10.0 mg/kg/injection, schedule: Q01DX005 (ip), vehicle: other 107 % of control | endpoint: mean survival time, dose: 18.8 mg/kg/injection, schedule: Q01DX005 (ip), vehicle: other 112 % of control

Cc1c2ccccc2c(C)c2c1cc(C(=O)O)c1ccccc12
inactive: endpoint: mean survival time, dose: 12.5 mg/kg/injection, schedule: Q04DX002 (ip), vehicle: Klucel (hydroxypropylcellulose) (HPC) 106 % of control | endpoint: mean survival time, dose: 25.0 mg/kg/injection, schedule: Q04DX002 (ip), vehicle: Klucel (hydroxypropylcellulose) (HPC) 101 % of control | endpoint: mean survival time, dose: 50.0 mg/kg/injection, schedule: Q04DX002 (ip), vehicle: Klucel (hydroxypropylcellulose) (HPC) 106 % of control | endpoint: mean survival time, dose: 100.0 mg/kg/injection, schedule: Q04DX002 (ip), vehicle: Klucel (hydroxypropylcellulose) (HPC) 107 % of control | endpoint: mean survival time, dose: 150.0 mg/kg/injection, schedule: Q04DX002 (ip), vehicle: Klucel (hydroxypropylcellulose) (HPC) 112 % of control | endpoint: median survival time, dose: 25.0 mg/kg/injection, schedule: Q01DX009 (ip), vehicle: sodium bicarbonate 111 % of control | endpoint: median survival time, dose: 50.0 mg/kg/injection, schedule: Q01DX009 (ip), vehicle: sodium bicarbonate 115 % of control and 117 % of control | endpoint: median survival time, dose: 200.0 mg/kg/injection, schedule: Q01DX009 (ip), vehicle: sodium bicarbonate 122 % of control | endpoint: median survival time, dose: 400.0 mg/kg/injection, schedule: Q01DX009 (ip), vehicle: sodium bicarbonate 107 % of control

CCOC(=O)COc1c(C(C)(C)C)cc([N+](=O)[O-])c(C)c1[N+](=O)[O-]
inactive: [8] 105 % of control | [9] 111 % of control | [10] 96 % of control

CC(C)(Cl)S(=O)c1ccccc1 (stereo unspecified)
inactive: [5] 93 % of control | [6] 93 % of control | [7] 95 % of control

CCOC(=O)CNCC(O)C(Cl)(Cl)Cl (stereo unspecified)
inactive: [5] 102 % of control | [6] 98 % of control | [7] 96 % of control

OCCN=Cc1c(Cl)ccc(Cl)c1Cl
inactive: endpoint: mean survival time, dose: 100.0 mg/kg/injection, schedule: Q04DX003 (ip), vehicle: saline 108 % of control | endpoint: mean survival time, dose: 200.0 mg/kg/injection, schedule: Q04DX003 (ip), vehicle: saline 101 % of control | endpoint: mean survival time, dose: 400.0 mg/kg/injection, schedule: Q04DX003 (ip), vehicle: saline 104 % of control

[I][Pt+2][I].[NH-]N1CCN([NH-])CC1
inactive: endpoint: mean survival time, dose: 3.13 mg/kg/injection, schedule: Q04DX003 (ip), vehicle: distilled water + Tween-80 102 % of control | endpoint: mean survival time, dose: 6.25 mg/kg/injection, schedule: Q04DX003 (ip), vehicle: distilled water + Tween-80 100 % of control | endpoint: mean survival time, dose: 12.5 mg/kg/injection, schedule: Q04DX003 (ip), vehicle: distilled water + Tween-80 102 % of control | endpoint: mean survival time, dose: 25.0 mg/kg/injection, schedule: Q04DX003 (ip), vehicle: distilled water + Tween-80 102 % of control | endpoint: mean survival time, dose: 50.0 mg/kg/injection, schedule: Q04DX003 (ip), vehicle: distilled water + Tween-80 104 % of control | endpoint: mean survival time, dose: 100.0 mg/kg/injection, schedule: Q04DX003 (ip), vehicle: distilled water + Tween-80 102 % of control | endpoint: mean survival time, dose: 200.0 mg/kg/injection, schedule: Q04DX003 (ip), vehicle: distilled water + Tween-80 100 % of control

Nc1ccc(-c2nc(=S)c3cn[nH]c3[nH]2)cc1
inactive: endpoint: mean survival time, dose: 12.5 mg/kg/injection, schedule: Q01DX005 (ip), vehicle: other 92 % of control | endpoint: mean survival time, dose: 25.0 mg/kg/injection, schedule: Q01DX005 (ip), vehicle: other 94 % of control | endpoint: mean survival time, dose: 50.0 mg/kg/injection, schedule: Q01DX005 (ip), vehicle: other 91 % of control | endpoint: mean survival time, dose: 100.0 mg/kg/injection, schedule: Q01DX005 (ip), vehicle: other 91 % of control | endpoint: mean survival time, dose: 200.0 mg/kg/injection, schedule: Q01DX005 (ip), vehicle: other 95 % of control

COc1cc(OC)c(NC(=O)Oc2ccc(C=O)cc2OC)cc1Cl
inactive: [4] 86 % of control | [1] 96 % of control

COc1ccccc1N=Nc1c(O)n(-c2ccc(Br)cc2)c(=S)n(-c2ccccc2)c1=O
inactive: [8] 93 % of control | [9] 93 % of control | [10] 87 % of control

CC(=O)[O][Sb]([CH3])([CH3])([CH3])[O]C(C)=O
inactive: endpoint: mean survival time, dose: 100.0 mg/kg/injection, schedule: Q04DX002 (ip), vehicle: saline with Tween-80 110 % of control | endpoint: mean survival time, dose: 200.0 mg/kg/injection, schedule: Q04DX002 (ip), vehicle: saline with Tween-80 98 % of control | endpoint: mean survival time, dose: 400.0 mg/kg/injection, schedule: Q04DX002 (ip), vehicle: saline with Tween-80 103 % of control

CC(=O)c1cc2ccccc2c2ccccc12
inactive: [4] 89 % of control | [1] 97 % of control | [2] 101 % of control

From PubChem BioAssay AID256 (DTP/NCI, 2004)
